Reference: patent US20120225123A1, “Use of Synergistic Combinations of an Avermectin and an Antineoplastic Compounds for the Treatment of Hematological Malignancies” (UNIVERSITY HEALTH NETWORK, priority 2009, published 2012)

What was measured:
[1] = system: panel of 5 leukemia cell lines; assay: Cell growth and viability by MTS assay in a panel of leukemia cell lines; type: cell-based; conditions: 72 hours, read-out: EC50, decreased viability
Method: (§1) Cell growth and viability was assessed by the MTS assay (Promega, Madison, Wis.) according to the manufacturer's instructions and as previously described.^12 Cell death was measured by Annexin V-fluoroscein isothiocyanate (FITC) and Propidium Iodide (PI; Biovision Research Products, Mountain View, Calif.) staining and flow cytometry according to the manufacturer's instructions and as previously described.^13 To identify CD34+ cells, a normal PBSC sample was co-stained with PE-anti-CD34+ (Beckman Coulter, Marseille France), and APC-anti-CD45 (Becton Dickenson, San Jose Calif.).
Having identified IVM in the chemical screens, the effects of IVM on cell growth and viability was tested in a panel of leukemia, cell lines. The effects of ivermectin on cell growth and viability in a panel of 5 leukemia cell lines were tested. Cells were treated with increasing concentrations of ivermectin and 72 hours after incubation, cell growth and viability were assessed by the MTS assay. Ivermectin decreased the viability of the tested leukemia cell lines with an EC50 of approximately 5 μM (FIG. 1B). The loss of viability was detected at 24 hours after treatment and increased in a time dependent manner. Cell death and apoptosis were confirmed by Annexin V and PI staining (FIG. 1C). […] (FIG. 1F).

[2] = system: acute myeloid leukemia (AML) patient samples; assay: Cell viability by Annexin V and PI staining, AML patient samples; type: cell-based, human; conditions: 48 hours
Method: Primary human acute myeloid leukemia (AML) samples were isolated from fresh bone marrow and peripheral blood samples of consenting patients. Similarly, primary normal hematopoietic cells were obtained from healthy consenting volunteers donating peripheral blood mononuclear cells
(PBSCs) for stem cell transplantation. The mononuclear cells were isolated from the samples by Ficoll density centrifugation. Primary cells were cultured at 37° C. in IMDM supplemented with 20% FCS and appropriate antibiotics.
as §1
Given the cytotoxicity of IVM toward leukemia cell lines, its cytotoxicity was compared to primary normal hematopoietic cells and acute myeloid leukemia (AML) patient samples (n=4 intermediate risk cytogenetics, n=1 good risk cytogenetics, and n=1 unknown cytogenetics). […]

[3] = system: OCI-AML2, K562 and MDAY-D2 leukemia cells in NOD/SCID mice; assay: Mouse models of leukemia, subcutaneous tumors, oral ivermectin; type: in vivo
Method: MDAY-D2 murine leukemia cells, and K562 and OCI-AML2 human leukemia cells (2.5×10^5) were injected subcutaneously into both flanks of sub-lethally irradiated (3.5 Gy) NOD/SCID mice (Ontario Cancer
Institute, Toronto, ON). Four (OCI-AML2), five (MDAY-D2), or seven (K562) days after injection, once tumors were palpable, mice were then treated daily for 10 days (K562) or treated with 8 doses over 10 days (OCI-AML2) with IVM (3 mg/kg) by oral gavage in water or vehicle control (n=10 per group). […] Tumor volume (tumor length x width^2×0.5236) was measured three times a week using calipers. Fourteen (MDAY-D2), 15 (OCI-AML2) or 17 (K562) days after injection of cells, mice were sacrificed, tumors excised and the volume and weight of the tumors were measured.
Given the effects of IVM as a potential anti-leukemic agent, IVM was evaluated in mouse models of leukemia. Human leukemia (OCI-AML2 and K562) and murine leukemia (MDAY-D2) cells (MDAY-D2, OCI-AML2 and K562) were injected subcutaneously into the flank of NOD/SCID mice. Four (OCI-AML2), five (MDAY-D2), or seven (K562) days after injection, once tumors were palpable, mice were then treated daily for 10 days (K562) or treated with 8 doses over 10 days (OCI-AML2) with IVM (3 mg/kg) by oral gavage in water or vehicle control (n=10 per group). […] Tumor volume and weight was measured over time.

OCI-AML2 cells = assay: Reactive oxygen species, Carboxy-H2DCFDA staining, OCI-AML2; type: cell-based, human; conditions: increasing concentrations, flow cytometry
Method: Data were analyzed with FlowJo version 8.8 (TreeStar, Ashland, Oreg.).

[4] = system: STAT1 and target genes IFIT3, OAS1 and TRIM22 in OCI-AML2 cells; assay: Gene expression by Q-RT-PCR, OCI-AML2; type: cell-based, human; conditions: after ivermectin treatment, Q-RT-PCR
Method: Leukemia cells were treated with buffer control or ivermectin (3 μM) for 30 and 40 hours. After treatment, cells were harvested, total RNA was isolated. Total RNA (10 μg) was used for cRNA amplification using the Invitrogen SuperScript kit (Life Technologies, Inc., Burlington, ON, Canada). Amplification and biotin labeling of antisense cRNA was performed using the Enzo® BioArray™ High Yield™ RNA transcript labeling kit (Enzo Diagnostics, Farmingdale, N.Y., USA), according to the manufacturer's instructions. RNA was then hybridized to Affymetrix HG U133 Plus 2.0 gene expression oligonucleotide arrays (Affymetrix, Santa Clara, Calif., USA). Microarray slides were scanned using the GeneArray 2500 scanner (Agilent Technologies). Microarray data were analyzed using GeneSpring GX v10.0 (Agilent), and lists of genes deregulated>2-fold after 30 and 40 hr ivermectin treatment were derived. Pathways and gene ontology analyses were carried out using Ingenuity Pathways Analysis (www.ingenuity.com); and the Database for Annotation, Visualization and Integrated Discovery (DAVID; http://david.abcc.ncifcrf.gov). […]
(§2) Gene expression changes were evaluated in OCI AML2, 0937, HL60, DU145 and PPC-1 cells by real-time Q-RT-PCRas described previously^15, 47. The expression level of STAT1A, STAT1B, TRIM22, OAS1 and IFIT3 before and after incubation of leukemia cells with ivermectin was evaluated.

[5] = system: STAT1 mRNA in U937 and HL60 leukemia cells; assay: Gene expression by Q-RT-PCR, U937 and HL60; type: cell-based, human
Method: as §2

[6] = cited from earlier work
dogs = conditions: oral; cited from earlier work
[7] = healthy male volunteers, 14 mg capsule of radiolabelled ivermectin
[8] = onchocerciasis patients, single oral dose of 150 μg/kg

## ivermectin
[1]
  EC50: ~5 µM
[2]
  cytotoxicity: cytotoxic to AML patient samples at low micromolar concentrations
[3]; MDAY-D2 mice, dosage escalated 3 to 6 mg/kg
  tolerability: well tolerated
[3]; oral gavage 3 mg/kg (MDAY-D2 escalated to 6 mg/kg), all 3 models, p<0.05
  decrease in tumor weight and volume compared to buffer control: up to 70%
[3]; oral ivermectin, all 3 models
  gross organ toxicity: without any gross organ toxicity
OCI-AML2 cells
  ROS production: increased ROS production
[4]
  expression of STAT1 and target genes: upregulation of STAT1 and target genes IFIT3, OAS1 and TRIM22
[5]
  STAT1 mRNA: demonstrated increased STAT1 mRNA
[6]; estimated
  time over which IVM and/or metabolites are excreted in the feces: ~12 days
[6]; [7]
  half-life: 11.8 h
  mean Tmax: 6 h
[6]; in vivo
  administered dose excreted in the urine: < 1%
[6]; [8]
  area under the curve over 48 hours: 2852 ng·h/mL
  maximum plasma concentration: 52.0 ng/mL
  time to maximum plasma concentration: 5.2 h
dogs
  LD50: ~80 mg/kg
